The values that follow come from patent US20070154449A1, “TIGHT JUNCTION MODULATING PEPTIDES FOR ENHANCED MUCOSAL DELIVERY OF THERAPEUTIC COMPOUNDS” (Nastech Pharmaceutical Company Inc., priority 2005, published 2007).

No end group written: not given here.

Series [1] has as its system in vitro epithelial tissue model. Nature of the series: Papp of drugs with and without PN159, in vitro tissue model. The settings on record: for Papp: Galantamine 40 mg/mL, pH 5.0. As for the experimental part:
In the present studies, 40 mg/ml galantamine in the lactate salt form was combined with 25, 50, and 100 μM PN159 in solution, pH 5.0 and osmolarity ˜270 mOsm. The combination was tested using an in vitro epithial tissue model to monitor galantamine permeation, transepithelial electrical resistance (TER), and the cytotoxicity of the formulation by LDH and MTT assays as described above. Permeation measurements for galantamine were conducted by standard HPLC analysis, as follows.
Galantamine concentration in the formulation and in the basolateral media (permeation samples) was determined using an isocratic LC (Waters Alliance) method with UV detection. • Column: Waters Symmetry Shield, C18, 5 um, 25×0.46 cm • Mobile phase: 5% ACN in 50 mM ammonium formate, pH 3.0 • Flow rate: 1 ml/min • Column temperature: 30° C. • Calibration curve: 0-400 μg/ml Galantamine HBr • Detection: UV at 285 nm
To evaluate permeabilizing activity in this context, 40 mg/ml galantamine in the lactate salt form was combined with 25, 50, and 100 μM PN159 in solution, pH 5.0 and osmolarity ˜270 mOsm. The combination was tested using an in vitro epithelal tissue model to monitor galantamine permeation, transepithelial electrical resistance (TER), and the cytotoxicity of the formulation by LDH and MTT assays.
For this purpose, in vitro tissue studies were performed on salmon calcitonin as a model therapeutic peptide in the absence and presence of […] PN159.

Series [2] can be described thus: Intranasal PYY(3-36) pharmacokinetics in rabbits with various TJMPs (Example 10). The class given is in vivo, New Zealand White rabbits. The settings on record: for AUCinf / AUClast / Cmax / T1/2 / Tmax: PYY(3-36) in plasma, 205 μg/kg intranasal with the named TJMP (concentration per Table 11, 50-1000 μM) or PBS, mean; for AUCinf / AUClast / Cmax / T1/2 / Tmax / In Vivo Tier Ranking: rabbit; for In Vivo Tier Ranking: PYY(3-36) 205 μg/kg intranasal, TJMP concentration per Table 11: PN159 50 μM, PN161, PN202 100 μM, PN27 250 μM, PN58, PN73, PN228 500 μM, PN183, PN556 1000 μM; for in vivo permeability relative to PN159: PYY(3-36) intranasal in rabbits, TJMPs at the concentrations tested. An excerpt:
The tubes were chilled until […].

Series [3] has as its system human-derived tracheal/bronchial epithelial cells (EpiAirway™ Tissue model system). The series is described as follows: Cytotoxicity (LDH assay), EpiAirway tissue model. The class given is cell-based. As for the experimental part:
The amount of cell death was assayed by measuring the release of lactate dehydrogenase (LDH) from the cells into the apical medium using a CytoTox 96 Cytotoxicity Assay Kit (Promega Corp., Madison, Wis.). One percent Octylphenolpoly (ethyleneglycolether)×(Triton X-100™) diluted in phosphate buffered saline (PBS) causes 100% lysis in cultured cells and served herein as a positive control for the LDH assay. Following the one hour incubation period with a test formulation (refer to Table 4 in Example 2 for details of test formulations), the total liquid volume of each insert was brought to a final volume of 200 μl with culture medium. The apical medium was then mixed by pipetting four times with a multichannel pipette set to a 100 μl volume. After mixing, a 100 μl sample from the apical side of each insert was transferred to a new 96-well plate. The apical media samples were sealed with a plate sealer and stored at room temperature for same day analysis or stored overnight at 4° C. for analysis the next day. To measure LDH levels, 5 μl of the 100 μl apical media sample was diluted in 45 μl DPBS in a new 96-well plate. Fresh, cell-free culture medium will be used as a blank. Fifty microliters of substrate solution was added to each well and incubated for 30 minutes at room temperature away from direct light. Following the 30 minute incubation, 50 μl of stop solution was added to each well. Optical density (OD) was measured at 490 nm with a uQuant absorbance plate reader from Biotek Instruments. The measurement of LDH release into the apical media indicates relative cytotoxicity of the samples. Percent cytotoxicity for each test formulation was calculated by subtracting the measured absorbance of the PBS control (basal level of LDH release) from the measured absorbance of the individual test formulation and then dividing that value by the measured absorbance for the 1% Triton X-100™ positive control, multiplied by 100.
The formula used to calculate percent cytotoxicity is as follows: [formula] Osmolality
Of the total 300 μl volume for each test formulation, only a 20 μl sample was applied to the human-derived tracheal/bronchial epithelial cells (EpiAirway™ Tissue model system) in order to assess the effect each test formulation had on TER, LDH and sample permeation.

Consider `CC(C)C[C@H](NC(=O)[C@H](CCCCN)NC(=O)CNC(=O)[C@H](CC(C)C)NC(=O)[C@@H](NC(=O)[C@@H]1CSSC[C@H](N)C(=O)N[C@@H](CO)C(=O)N[C@@H](CC(N)=O)C(=O)N[C@@H](CC(C)C)C(=O)N[C@@H](CO)C(=O)N[C@@H]([C@@H](C)O)C(=O)N1)C(C)C)C(=O)N[C@@H](CO)C(=O)N[C@@H](CCC(N)=O)C(=O)N[C@@H](CCC(=O)O)C(=O)N[C@@H](CC(C)C)C(=O)N[C@@H](Cc1c[nH]cn1)C(=O)N[C@@H](CCCCN)C(=O)N[C@@H](CC(C)C)C(=O)N[C@@H](CCC(N)=O)C(=O)N[C@H](C(=O)N[C@@H](Cc1ccc(O)cc1)C(=O)N1CCC[C@H]1C(=O)N[C@@H](CCCNC(=N)N)C(=O)N[C@H](C(=O)N[C@@H](CC(N)=O)C(=O)N[C@H](C(=O)NCC(=O)N[C@@H](CO)C(=O)NCC(=O)N[C@H](C(=O)N1CCC[C@H]1C(N)=O)[C@@H](C)O)[C@@H](C)O)[C@@H](C)O)[C@@H](C)O` [Calcitonin, salmon calcitonin], for which, in series [1], the “fold increase in Papp of calcitonin with PN159” value is 23-47 fold.

Take `COc1ccc2c3c1O[C@H]1C[C@@H](O)C=C[C@@]31CCN(C)C2` [Galantamine, galantamine]: the “fold increase in Papp of galantamine with PN159” value in series [1] (40 mg/ml galantamine lactate, pH 5.0, with 25, 50, 100 PN159 versus without) is 2.5-3.5 fold. Moreover, the Papp in series [1] ([PN159] 0 μM) was 2.1 ×10⁻⁶ cm/s; in series [1] ([PN159] 0 μM, listed as galantamine), “about 2.1×10^−6 cm/s”; in series [1] ([PN159] 25 μM), 5.1 ×10⁻⁶ cm/s; in series [1] ([PN159] 50 μM), 6.2 ×10⁻⁶ cm/s; in series [1] ([PN159] 100 μM) it was 7.2 ×10⁻⁶ cm/s.

For `CC[C@H](C)[C@H](NC(=O)[C@H](CCCCN)NC(=O)[C@@H](NC(=O)[C@H](CCC(N)=O)NC(=O)[C@@H](N)CCCNC(=N)N)[C@@H](C)CC)C(=O)N[C@@H](Cc1c[nH]c2ccccc12)C(=O)N[C@@H](Cc1ccccc1)C(=O)N[C@@H](CCC(N)=O)C(=O)N[C@@H](CC(N)=O)C(=O)N[C@@H](CCCNC(=N)N)C(=O)N[C@@H](CCCNC(=N)N)C(=O)N[C@@H](CCSC)C(=O)N[C@@H](CCCCN)C(=O)N[C@@H](Cc1c[nH]c2ccccc12)C(=O)N[C@@H](CCCCN)C(=O)N[C@@H](CCCCN)C(N)=O` [PN58], in series [2], the AUCinf was 871000 pg·min/mL, the AUClast worked out at 830000 pg·min/mL, the Cmax amounted to 12.8 ng/mL and the T1/2 turned out to be 29.5 min. Moreover, the time of peak concentration (Tmax) in series [2] is 43.0 min.

Turning to `CC[C@H](C)[C@H](NC(=O)[C@H](CCCCN)NC(=O)[C@H](CCCCN)NC(=O)[C@H](C)NC(=O)[C@H](CC(C)C)NC(=O)[C@H](C)NC(=O)[C@H](C)NC(=O)[C@H](CC(C)C)NC(=O)[C@H](C)NC(=O)[C@H](CCCCN)NC(=O)[C@H](CC(C)C)NC(=O)[C@H](CC(N)=O)NC(=O)[C@@H](NC(=O)[C@H](CCCCN)NC(=O)CNC(=O)[C@H](CC(C)C)NC(=O)[C@H](CC(C)C)NC(=O)[C@H](Cc1ccc(O)cc1)NC(=O)CNC(=O)[C@H](C)NC(=O)[C@H](CO)NC(=O)[C@H](CC(N)=O)NC(=O)[C@H](CC(C)C)NC(=O)[C@@H](NC(=O)[C@H](Cc1c[nH]c2ccccc12)NC(=O)CN)[C@@H](C)O)[C@@H](C)CC)C(=O)N[C@@H](CC(C)C)C(N)=O` [PN161], in series [2], the “In Vivo Tier Ranking” value was “I”, the AUCinf was found to be 1.65e+06 pg·min/mL, the AUClast came out at 1.62e+06 pg·min/mL and the Cmax is 32.1 ng/mL. In series [2], the T1/2 was found to be 34.3 min, the Tmax is recorded as 24.0 min and the “in vivo permeability relative to PN159” value is on record as “comparable to PN159”.

On to `CC[C@H](C)[C@H](NC(=O)[C@H](CCC(=O)O)NC(=O)[C@H](CO)NC(=O)[C@@H](NC(=O)[C@@H](N)CO)C(C)C)C(=O)N[C@@H](CCC(N)=O)C(=O)N[C@@H](CC(C)C)C(=O)N[C@@H](CCSC)C(=O)N[C@@H](Cc1cnc[nH]1)C(=O)N[C@@H](CC(N)=O)C(=O)N[C@@H](CC(C)C)C(=O)NCC(=O)N[C@@H](CCCCN)C(=O)N[C@@H](Cc1cnc[nH]1)C(=O)N[C@@H](CC(C)C)C(=O)N[C@@H](CC(N)=O)C(=O)N[C@@H](CO)C(=O)N[C@@H](CCSC)C(=O)N[C@@H](CCC(=O)O)C(=O)N[C@@H](CCCN=C(N)N)C(=O)N[C@H](C(=O)N[C@@H](CCC(=O)O)C(=O)N[C@@H](Cc1c[nH]c2ccccc12)C(=O)N[C@@H](CC(C)C)C(=O)N[C@@H](CCCN=C(N)N)C(=O)N[C@@H](CCCCN)C(=O)N[C@@H](CCCCN)C(=O)N[C@@H](CC(C)C)C(=O)N[C@@H](CCC(N)=O)C(=O)N[C@@H](CC(=O)O)C(=O)N[C@H](C(=O)N[C@@H](Cc1cnc[nH]1)C(=O)N[C@@H](CC(N)=O)C(=O)N[C@@H](Cc1ccccc1)C(=O)O)C(C)C)C(C)C` [PTH1-34, human parathyroid hormone 1-34], for which the “fold increase in Papp of PTH1-34 with PN159” value in series [1] is recorded as 3-5 fold.

As to AAVALLPAVLLALLAPRKKRRQRRRPPQ-NH2 [PN27], in series [2], the “In Vivo Tier Ranking” value is reported as “I”, the AUCinf was 1.71e+06 pg·min/mL, the AUClast is 1.67e+06 pg·min/mL and the Cmax turned out to be 29.3 ng/mL. In series [2], the T1/2 came out at 29.9 min, the Tmax is listed as 33.0 min and the “in vivo permeability relative to PN159” value is “comparable to PN159”.

For the compound “KETWWETWWTEWSQPGRKKRRQRRRRPPQ-NH2 [PN183]”, in series [2], the AUCinf came to 275000 pg·min/mL, the AUClast is 258000 pg·min/mL, the Cmax is 5.45 ng/mL and the T1/2 came to 33.7 min. Besides, the Tmax in series [2] is given as 22.0 min.

In the case of KLWSAWPSLWSSLWKP-NH2 [PN228], in series [2], the AUCinf stood at 1.08e+06 pg·min/mL, the AUClast came out at 1.06e+06 pg·min/mL, the maximum concentration (Cmax) came out at 21.2 ng/mL and the T1/2 was found to be 30.4 min. Further, in series [2], the Tmax amounted to 31.0 min.

Regarding LRKLRKRLLRLRKLRKRLLR-NH2 [PN745], the LDH in series [3] (25 μM peptide, 1 h incubation, % of 1% Triton X-100 control) worked out at 11%; in series [3] (100 μM peptide, 1 h incubation, % of 1% Triton X-100 control), 28%; in series [3] (250 μM peptide, 1 h incubation, % of 1% Triton X-100 control) it was 45%; in series [3] (500 μM peptide, 1 h incubation, % of 1% Triton X-100 control), 45%; in series [3] (1000 μM peptide, 1 h incubation, % of 1% Triton X-100 control), 45%.

For the compound “Octylphenolpoly (ethyleneglycolether)× [Triton X-100, reference compound]”, the LDH in series [3] (1% Triton X-100, positive (100% release) control) was 100%.
